Test [1] relates to Staphylococcus aureus ATCC 29213 (MSSA, standard strain). The test is described as follows: Susceptibility test (MIC), standard strain. The format is cell-based. Conditions: Staphylococcus aureus ATCC 29213; read-out: MIC. Here is the method: (§1) For the compound of formula 1, pharmacokinetic/pharmacodynamic experiments were conducted using a mouse infection model. To this end, experiments were conducted with Staphylococcus aureus ATCC 29213 (MSSA, standard strain) and 13B-382 (MRSA, clinical strain). As a medium, Mueller-Hinton broth or Cation-adjusted Mueller-Hinton broth was used. For the susceptibility test (minimum inhibitory concentration (MIC)), the compound of formula 1 was used.

For test [2], the system named is Staphylococcus aureus ATCC 29213 (MSSA) and 13B-382 (MRSA). As to the kind of experiment: Pharmacokinetic/pharmacodynamic analysis in neutropenic mouse thigh infection model. It is filed as in vivo, ICR mouse. Conditions: oral administration. On the procedure:
as §1
An aseptic (Specific pathogen free, SPF) female, 6 weeks old (23˜27 g) ICR mouse (Orient Bio Inc, Gapyeong, Korea) was used, and the experiment was carried out in compliance with the regulations and procedures with the permission of the Ethics committees for animal experiments in accordance with the Animal Protection Act and the Laboratory Animal Act. […]
After 24 hours of drug administration, the mouse was euthanized with carbon dioxide gas and its thigh was separated, put in physiological saline, and cut finely with a homogenizer (Kinematica AG/Polytron®). […] The number of viable cells was counted and recorded. The results were expressed as log10 CFU/thigh, and the measurement limit of the number of viable cells in the laboratory was 1×10^2 CFU/thigh.
T/MIC was evaluated as an index to determine the effect of antibiotics in combination with the antimicrobial action and pharmacokinetic results according to the antimicrobial dosage and administration. […]

Test [3] concerns Methicillin-susceptible Staphylococcus aureus strains. The test is described as follows: Drug susceptibility (MIC) of methicillin-susceptible clinical isolates. It is filed as cell-based. Conditions: Methicillin-susceptible, n = 103. Here is the method: In order to verify the inhibitory effect of the compound of formula 1 on antibiotic-resistant strains, drug susceptibility was evaluated by treating the compound of formula 1 with Staphylococcus aureus phenotype isolated from each patient. In an in vitro test for antibiotic development, the most important result can be MIC90 (minimum inhibitory concentration required to inhibit the growth of 90% of the total bacterial population). […] Appelbaum at Hershey Hospital who is recognized for its authority in the field of anti-infection worldwide.

Regarding `Cc1c(N)cccc1Cn1ccc(OCCc2cccs2)cc1=O` [Compound of formula 1, 1-(3-amino-2-methylbenzyl)-4-(2-thiophen-2-yl-ethoxy)-1H-pyridin-2-one], the MIC in test [1] came to 0.25 µg/mL. Further, in test [2] (T/MIC value approximately 20% or higher), the bacteria eradicated entry is “more than 99.9%”. Also, the “T/MIC value at which more than 99.9% of bacteria were eradicated” value in test [2] (24 hours) is recorded as at least 20%. Further, in test [3], the “MIC Range” value was 0.06 to 1.0 µg/mL. For the same compound, the MIC50 in test [3] (Staphylococcus aureus, read-out: MIC50) amounted to 0.25 µg/mL. Also, the MIC90 in test [3] (Staphylococcus aureus, read-out: MIC90) is 0.25 µg/mL.

A word on the MIC: it is the lowest concentration found to suppress growth. By MIC50 is commonly meant an inhibitory concentration at the 50% level, which refers to growth in some studies and to a panel of isolates in others. Usually MIC90 stands for the lowest concentration that inhibits either 90% of growth or 90% of the strains tested, depending on the study.

For the origin of these results see patent US20220031607A1, “INJECTION COMPOSITION CONTAINING FAB I INHIBITOR, AND PREPARATION METHOD THEREFOR” (CRYSTALGENOMICS, INC., priority 2019, published 2022).
